The results in this text go back to patent publication US20240067632A1, “WEE1 Degrading Compounds and Uses Thereof” (Bristol-Myers Squibb Company, priority 2022, published 2024).

pEC50: −log10 of the molar value. Read-outs that look alike come from different tables or passages of the source.

One experiment deals with T1, WEE1 (Homo sapiens, UniProt P30291+Q96SW2).
T1 construct: C-terminal ePL-tagged (DiscoverX, Fremont, CA) full-length WEE1 expression construct; expressed in transfected cells; host or cells: LentiX-HEK293T (Invitrogen), lentiviral transduction; co-expressing GSPT1-GN (G576N, lacking the first 158 amino acids)
The experiment is described as follows: WEE1-ePL degradation assay (LentiX-WEE1-ePL-GSPT1-ND cells, InCELL Hunter luminescence, 4 h). Type of experiment: cell-based. To be noted: 293T-LentiX WEE1-ePL cells; for DC50: read-out: 293T-LentiX WEE1-ePL Degradation 4 hr (EC50). In outline: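 Degradation EC50 was fitted by a four-parameter logistic model, with the upper limit taken from DMSO wells. Luminescence was read with InCELL Hunter reagent after 30 min at room temperature, following a 4 h, 37° C exposure of 2500 cells/well. Cells were LentiX-HEK293T carrying ePL-tagged full-length WEE1, dosed in 10 points (3-fold) from 1 or 10 uM.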

For another experiment, the system named is MKN45 cells. Briefly: MKN45 cell proliferation assay (Cell-Titer-Glo, 120 h). Type of experiment: cell-based. Conditions: for pEC50: Homo sapiens, MKN-45, 120 h, Cell-Titer-Glo, read-out: MKN45 Cell Prolif. 120 hr (EC50); for MKN45 Cell Prolif. 120 hr (Ymin-Obs): minimal percent of DMSO control observed in the concentrations tested. In outline: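 Growth inhibition was read as blank-corrected Cell-Titer-Glo luminescence expressed as percent DMSO control after 120 h at 37 C, 400 cells/well. Compounds tested in triplicate as 10-point half-log series from 1 or 10 uM, 0.1% DMSO; four-parameter fit gave EC50, and lowest observed percent control was reported as Ymin-obs.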

[1] abbreviates: lower limit of the fit (0 = luciferase inhibitor, Ymax = DMSO control).

Consider `N#Cc1ncc2cc(CN3CC[C@H](Oc4ccc5c(c4)CN(C4CCC(=O)NC4=O)C5=O)C3)ccc2n1` (stereo partly drawn) [6-{[(3S)-3-{[2-(2,6-dioxopiperidin-3-yl)-1-oxo-2,3-dihydro-1H-isoindol-5-yl]oxy}pyrrolidin-1-yl]methyl}quinazoline-2-carbonitrile], for which, on WEE1 (setting [1]), the “293T-LentiX WEE1-ePL Degradation 4 hr (Ymin)” value is 35. For the same compound, the DC50 at WEE1 came to 12.1 nM. The pEC50 in the experiment with MKN45 cells (growth inhibition) is 7.14. In addition, the “MKN45 Cell Prolif. 120 hr (Ymin-Obs)” value in the experiment on MKN45 cells amounted to 17.27.
As for `CC1(C)CC(=O)N(c2ccc3cc(CN4CC[C@H](Oc5ccc6c(c5)CN(C5CCC(=O)NC5=O)C6=O)C4)ccc3n2)C1` (stereo partly drawn) [3-(5-{[(3S)-1-{[2-(4,4-dimethyl-2-oxopyrrolidin-1-yl)quinolin-6-yl]methyl}pyrrolidin-3-yl]oxy}-1-oxo-2,3-dihydro-1H-isoindol-2-yl)piperidine-2,6-dione], the “293T-LentiX WEE1-ePL Degradation 4 hr (Ymin)” value on WEE1 (setting [1]) was found to be 31. The DC50 on WEE1 was determined as 1.58 nM. Also, the pEC50 in the experiment on MKN45 cells (growth inhibition) is 8.56. The “MKN45 Cell Prolif. 120 hr (Ymin-Obs)” value in the experiment on MKN45 cells came to 8.145.
For `O=C1CCC(N2Cc3cc(O[C@H]4CCN(Cc5ccc6c(c5)NC(=O)CO6)C4)ccc3C2=O)C(=O)N1` (stereo partly drawn) [3-(1-oxo-5-{[(3S)-1-[(3-oxo-3,4-dihydro-2H-1,4-benzoxazin-6-yl)methyl]pyrrolidin-3-yl]oxy}-2,3-dihydro-1H-isoindol-2-yl)piperidine-2,6-dione] the same measures were 70, 558 nM, less than 5.00 and 88.425.
As to `CNc1ncc2cc(CN3CC[C@H](Oc4ccc5c(c4)CN(C4CCC(=O)NC4=O)C5=O)C3)ccc2n1` (stereo partly drawn) [3-(5-{[(3S)-1-{[2-(methylamino)quinazolin-6-yl]methyl}pyrrolidin-3-yl]oxy}-1-oxo-2,3-dihydro-1H-isoindol-2-yl)piperidine-2,6-dione], on WEE1 (setting [1]), the “293T-LentiX WEE1-ePL Degradation 4 hr (Ymin)” value came to 41. Besides, at WEE1, the DC50 is 44.8 nM. The negative logarithm of the EC50 (pEC50) in the experiment on MKN45 cells (growth inhibition) was 6.63. In addition, the “MKN45 Cell Prolif. 120 hr (Ymin-Obs)” value in the experiment on MKN45 cells is given as 22.48.
As for `O=C1CC[C@@H](N2Cc3cc(O[C@H]4CCN(Cc5ccc6nc(N7CCOCC7)ncc6c5)C4)ccc3C2=O)C(=O)N1` [(3R)-3-(5-{[(3S)-1-{[2-(morpholin-4-yl)quinazolin-6-yl]methyl}pyrrolidin-3-yl]oxy}-1-oxo-2,3-dihydro-1H-isoindol-2-yl)piperidine-2,6-dione], the “293T-LentiX WEE1-ePL Degradation 4 hr (Ymin)” value on WEE1 (lower limit of the fit (Ymin=0 luciferase inhibitor, Ymax DMSO control)) was 31.07. The DC50 on WEE1 was 46.3 nM. Further, in the experiment with MKN45 cells, the pEC50 is 7.62 and the “MKN45 Cell Prolif. 120 hr (Ymin-Obs)” value is given as 17.43.
Regarding `CN1CCC(c2ccc3cc(CN4CC[C@H](Oc5ccc6c(c5)CN(C5CCC(=O)NC5=O)C6=O)C4)ccc3n2)CC1` (stereo partly drawn) [3-(5-{[(3S)-1-{[2-(1-methylpiperidin-4-yl)quinolin-6-yl]methyl}pyrrolidin-3-yl]oxy}-1-oxo-2,3-dihydro-1H-isoindol-2-yl)piperidine-2,6-dione], the “293T-LentiX WEE1-ePL Degradation 4 hr (Ymin)” value on WEE1 (setting [1]) came out at 30. Also, the DC50 on WEE1 worked out at 28.6 nM. Further, the pEC50 in the experiment on MKN45 cells (growth inhibition) was 7.66. Besides, the “MKN45 Cell Prolif. 120 hr (Ymin-Obs)” value in the experiment on MKN45 cells is 7.273.
For the compound `CN(C(=O)C1CCOCC1)c1ccc2cc(CN3CC[C@H](Oc4ccc5c(c4)CN(C4CCC(=O)NC4=O)C5=O)C3)ccc2n1` (stereo partly drawn) [N-(6-{[(3S)-3-{[2-(2,6-dioxopiperidin-3-yl)-1-oxo-2,3-dihydro-1H-isoindol-5-yl]oxy}pyrrolidin-1-yl]methyl}quinolin-2-yl)-N-methyloxane-4-carboxamide], the “293T-LentiX WEE1-ePL Degradation 4 hr (Ymin)” value at WEE1 (setting [1]) amounted to 32.5. Further, the DC50 at WEE1 is 5.04 nM. Moreover, the pEC50 with MKN45 cells (growth inhibition) was 8.48. Also, the “MKN45 Cell Prolif. 120 hr (Ymin-Obs)” value with MKN45 cells was determined as 6.6.

The term pEC50 denotes the negative decadic logarithm of the EC50, by convention in mol/L.
